Data set [1] can be described thus: Effect on respiration, blood pressure, heart rate and electrocardiogram. The data set is classed as in vivo, Beagle dogs. As to conditions: for NOAEL: dog, in vivo, iv, injected into brachial veins, anesthetized Beagle dogs, read-out: maximum dosage not effected on respiration, blood pressure, heart rate and electrocardiogram. On the procedure:
Beagle dogs of both sexes weighing about 10 kg were anesthetized with pentobarbital sodium (30 mg/kg, i.v.), and immobilized in the supine position. Test compounds dissolved in physiological saline solution were injected into the brachial veins of the animals and the arteries at cannulated positions were treated with heparin sodium as anticoagulant.
The respiration rate of each animal was estimated with a respirometer (Nihonkohden, RP-3) through a tracheal cannula, the blood pressure with an electro-haemodynamometer (Nihonkohden, MP-4T) attached surgically to the femoral artery, and the heart rate with a pulse-rate tachometer (Nihonkohden, RT-2) through the trigger pulse of the blood pressure.

The test system of data set [2] is various kinds of bacteria. The data set can be described thus: Antibacterial activity (overall statement). Format: cell-based. The note with it: Table VI. The source says:
Using 6DCNU and 6MCαG, minimum inhibiting concentrations (referred to as "MIC") for various kinds of bacteria were estimated by means of the broth-dilution method.

For data set [3] the following is noted: known compounds, generally seen; cited from earlier work.

On to `O=NN(CCCl)C(=O)NC[C@H]1OC(O)[C@H](O)[C@@H](O)[C@@H]1O` (stereo partly drawn) [Example 6DCNU, 3-(D-glucopyranos-6-yl)-1-(2-chloroethyl)-1-nitrosourea], for which the “maximum dosage without effect, comparison in words” value in data set [1] (Beagle dogs) is on record as “highest dosage value”. Moreover, the NOAEL in data set [1] worked out at 70 mg/kg. For the same molecule, the “antibacterial activity, in words” value in data set [2] is given as “no substantial antibacterial activity”.
With `CO[C@H]1O[C@H](CNC(=O)N(CCCl)N=O)[C@@H](O)[C@H](O)[C@H]1O` [Example 6MCαG, 1-(2-chloroethyl)-3-(methyl α-D-glucopyranos-6-yl)-1-nitrosourea], in data set [1], the NOAEL was found to be 50 mg/kg. Further, in data set [3], the “diabetogenic activity, decreasing order” value is “SZ>DCNU>GANU> 2MCαG≈6MCαG”.

Source of the values: patent US4156777A, “Process for producing glucopyranose-nitrosourea compounds and novel compounds included therein” (Tokyo Tanabe Company, Limited, priority 1977, dated 1979).
